In one data set the target is T1, recombinant human NQO2 (Homo sapiens, UniProt P16083).
T1 sequence (P16083 1-231): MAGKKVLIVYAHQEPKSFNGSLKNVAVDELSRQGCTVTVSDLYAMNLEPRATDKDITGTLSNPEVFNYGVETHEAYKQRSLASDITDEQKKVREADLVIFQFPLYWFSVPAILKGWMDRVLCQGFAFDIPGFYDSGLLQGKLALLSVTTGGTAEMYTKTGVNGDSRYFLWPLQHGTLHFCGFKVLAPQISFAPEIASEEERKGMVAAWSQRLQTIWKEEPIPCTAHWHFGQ
Kind of data set: NQO2 enzyme inhibition assay (DCPIP substrate, NRH or EPR co-substrate). The data set is classed as biochemical. Conditions: for reduction in potency relative to compound 40: removal of the 4-OMe or the 5-OMe from 40. How it is done: In this assay, dichlorophenolindophenol (DCPIP) was used as a substrate for NQO2. NRH (SI or EP0152R) was used as the co-substrate for the enzyme.
The NQO2 enzyme assay was carried out using a […] GO spectrophotometer by measuring the absorbance of DCPIP at 600 nm. NRH [31] or EPR were used as co-substrates. The experiment was performed using a 96-well plate with a […] final volume using phosphate buffer (50 mM, pH 7.4). The final concentrations were DCPIP 40 µM and NRH or EPR 200 µM. The final enzyme concentration was 100 ng. The assay was performed at 37 °C and initiated through the addition of NQO2. The initial rates of the enzyme reactions were calculated from the curve by taking the initial slopes of the reactions using the formula (ΔAb/ΔTime). The assay of inhibitors was carried out using the same assay conditions. […] Each experiment was performed in triplicate. Rates were converted to the percentage of enzyme activity, and IC50 values were calculated using GraphPad Prism 7.03 software using the non-linear regression function. IC50 values were determined as a 50% decrease in NQO2 activity.

Where [1] appears, read: DCPIP substrate, NRH co-substrate, read-out: IC50 for inhibition of NQO2.
Setting [2] is: inhibition of NQO2, DCPIP 40 µM, NRH or EPR 200 µM, phosphate buffer pH 7.4, 37 °C, triplicate, read-out: IC50 (µM) ± SD.

Structures are written as SMILES. Read-outs that look alike come from different tables or passages of the source.

The source of these data is publication PMC11593696, “Discovery of Potent Benzothiazole Inhibitors of Oxidoreductase NQO2, a Target for Inflammation and Cancer” (International Journal of Molecular Sciences, 2024).

One may read the IC50 as the concentration that inhibits the measured activity by half. The melting point is the temperature of the solid-liquid transition.

`COc1cc(-c2nc3ccc(C(F)(F)F)cc3s2)cc(OC)c1OC` [Compound 42, 6-(Trifluoromethyl)-2-(3,4,5-trimethoxyphenyl)benzo[d]thiazole]: the IC50 was 18.4 µM at recombinant human NQO2 (setting [1]) and 18.36 ± 0.03 µM at recombinant human NQO2 (setting [2]).
For `COc1ccc(-c2nc3ccc(F)cc3s2)cc1OC` [Compound 37, 2-(3,4-Dimethoxyphenyl)-6-fluorobenzo[d]thiazole], in that order: 5.93 µM and 5.93 ± 0.05 µM.
Molecule `Oc1ccc2nc(-c3cc(O)c(O)c(O)c3)sc2c1` [Compound 52, 6-Hydroxy-2-(3,4,5-trihydroxyphenyl)benzo[d]thiazole] returned a melting point of 240 to 242 °C. The IC50 on recombinant human NQO2 (setting [2]) stood at 0.2 ± 0.01 µM.
As to `COc1cc(-c2nc3ccc(C#N)cc3s2)cc(OC)c1OC` [Compound 44, 2-(3,4,5-Trimethoxyphenyl)benzo[d]thiazole-6-carbonitrile], the melting point was 228 to 230 °C. Also, the IC50 on recombinant human NQO2 (setting [1]) came to 13.3 µM. Besides, the IC50 on recombinant human NQO2 (setting [2]) amounted to 13.28 ± 0.02 µM.
Consider `COc1cc(-c2nc3ccc([N+](=O)[O-])cc3s2)cc(OC)c1OC` [Compound 47, 6-Nitro-2-(3,4,5-trimethoxyphenyl)benzo[d]thiazole], for which the melting point fell in the range of 200 to 201 °C. The IC50 at recombinant human NQO2 (setting [2]) stood at 0.754 ± 0.008 µM.
The corresponding values for `COc1cc(-c2nc3ccc(Cl)cc3s2)cc(OC)c1OC` [Compound 43, 6-Chloro-2-(3,4,5-trimethoxyphenyl)benzo[d]thiazole] are 173 to 174 °C and 0.773 ± 0.016 µM.
On to `COc1cccc(-c2nc3ccc(F)cc3s2)c1` [Compound 53, 6-Fluoro-2-(3-methoxyphenyl)benzo[d]thiazole], for which the melting point was 103 to 105 °C. On recombinant human NQO2 (setting [1]), the IC50 was found to be 0.908 µM. The IC50 on recombinant human NQO2 (setting [2]) worked out at 0.908 ± 0.02 µM.
For `COc1cc(-c2nc3ccc(NC(C)=O)cc3s2)cc(OC)c1OC` [Compound 49, N-(2-(3,4,5-Trimethoxyphenyl)benzo[d]thiazol-6-yl)acetamide], in that order: 208 to 209 °C, 0.031 µM and 0.031 ± 0.008 µM.
For `COc1ccc(OC)c(-c2nc3ccc(Cl)cc3s2)c1` [Compound 27, 6-Chloro-2-(2,5-dimethoxyphenyl)benzo[d]thiazole], in that order: 220 to 222 °C, 1.18 µM and 1.18 ± 0.002 µM.
As to `COc1cc(OC)cc(-c2nc3ccc(Br)cc3s2)c1` [Compound 4, 6-Bromo-2-(3,5-dimethoxyphenyl)benzo[d]thiazole], the melting point is 164 to 165 °C. Moreover, the IC50 at recombinant human NQO2 (setting [2]) was greater than 100 µM.
For `COc1ccc(OC)c(-c2nc3ccc(Br)cc3s2)c1` [Compound 25, 6-Bromo-2-(2,5-dimethoxyphenyl)benzo[d]thiazole], in that order: 135 to 137 °C and 6.71 ± 0.02 µM.
For `COc1cc(OC)cc(-c2nc3ccc([N+](=O)[O-])cc3s2)c1` [Compound 10, 2-(3,5-Dimethoxyphenyl)-6-nitrobenzo[d]thiazole], in that order: 199 to 200 °C and 93.44 ± 0.02 µM.
As to `Fc1cc(F)cc(-c2nc3ccc(F)cc3s2)c1` [Compound 58, 2-(3,5-Difluorophenyl)-6-fluorobenzo[d]thiazole], the “inhibition of NQO2 enzymatic activity, in words” value at recombinant human NQO2 is “loss of inhibition of NQO2 activity”. For the same molecule, the IC50 at recombinant human NQO2 (setting [2]) is greater than 100 µM.
In the case of `COc1ccc(-c2nc3ccc(C#N)cc3s2)c(OC)c1` [Compound 20, 2-(2,4-Dimethoxyphenyl)benzo[d]thiazole-6-carbonitrile], the melting point is 235 to 237 °C. Moreover, the IC50 at recombinant human NQO2 (setting [2]) was greater than 100 µM.
As for `Oc1cc(O)cc(-c2nc3ccc(O)cc3s2)c1` [Compound 15, 6-Hydroxy-2-(3,5-dihydroxyphenyl)benzo[d]thiazole], the IC50 amounted to 0.025 µM on recombinant human NQO2 (setting [1]) and 0.025 ± 0.003 µM on recombinant human NQO2 (setting [2]).
As for `COc1cc(OC)cc(-c2nc3ccc(NC(=O)c4ccccc4)cc3s2)c1` [Compound 13, N-(2-(3,5-Dimethoxyphenyl)benzo[d]thiazol-6-yl)benzamide], the melting point was 138 to 140 °C. Moreover, at recombinant human NQO2, the “inhibition of NQO2 enzymatic activity, in words” value was “further loss of activity”. On recombinant human NQO2 (setting [2]), the IC50 is 8.44 ± 0.03 µM.
As for `COc1ccc(-c2nc3ccc(I)cc3s2)cc1OC` [Compound 38, 2-(3,4-Dimethoxyphenyl)-6-iodobenzo[d]thiazole], the IC50 on recombinant human NQO2 (setting [1]) was 22.9 µM; on recombinant human NQO2 (setting [2]) it was 22.94 ± 0.02 µM.
Molecule `COc1cc(-c2nc3ccc(Br)cc3s2)cc(OC)c1OC` [Compound 41, 6-Bromo-2-(3,4,5-trimethoxyphenyl)benzo[d]thiazole] showed a melting point of 171 to 172 °C. The IC50 on recombinant human NQO2 (setting [2]) came to 0.193 ± 0.003 µM.
The corresponding values for `COc1cc(OC)cc(-c2nc3ccc(I)cc3s2)c1` [Compound 9, 2-(3,5-Dimethoxyphenyl)-6-iodobenzo[d]thiazole] are 150 to 152 °C and 2.46 ± 0.01 µM.
With `COc1ccc2nc(-c3ccc(OC)c(OC)c3)sc2c1` [Compound 32, 2-(3,4-Dimethoxyphenyl)-6-methoxybenzo[d]thiazole], the IC50 was 1.27 µM on recombinant human NQO2 (setting [1]) and 1.27 ± 0.03 µM at recombinant human NQO2 (setting [2]). In addition, the “reduction in potency relative to compound 40” value on recombinant human NQO2 was found to be 20 fold.
`COc1ccc(OC)c(-c2nc3ccc(C#N)cc3s2)c1` [Compound 28, 2-(2,5-Dimethoxyphenyl)benzo[d]thiazole-6-carbonitrile]: the melting point lay in the range of 182 to 184 °C. Besides, the IC50 on recombinant human NQO2 (setting [2]) is greater than 100 µM.
For `Fc1ccc(-c2nc3ccc(F)cc3s2)cc1` [Compound 56, 6-Fluoro-2-(4-fluorophenyl)benzo[d]thiazole], the IC50 at recombinant human NQO2 (setting [1]) and on recombinant human NQO2 (setting [2]) was greater than 100 µM in each case.
Molecule `COc1cc(OC)cc(-c2nc3ccc(OC)cc3s2)c1` [Compound 3, 2-(3,5-Dimethoxyphenyl)-6-methoxybenzo[d]thiazole] had a melting point of 121 to 123 °C. At recombinant human NQO2 (setting [1]), the IC50 stood at 0.108 µM. At recombinant human NQO2 (setting [2]), the half-maximal inhibitory concentration (IC50) was 0.108 ± 0.012 µM. For the same molecule, the “reduction in potency relative to compound 40” value at recombinant human NQO2 is 2 fold.
The molecule `Fc1cccc(-c2nc3ccc(F)cc3s2)c1` [Compound 55, 6-Fluoro-2-(3-fluorophenyl)benzo[d]thiazole] yielded a melting point of 111 to 112 °C. For the same molecule, the IC50 at recombinant human NQO2 (setting [1]) turned out to be 52.6 µM. Moreover, the IC50 on recombinant human NQO2 (setting [2]) is 52.55 ± 0.06 µM.
For `COc1ccc(-c2nc3ccc(Br)cc3s2)c(OC)c1` [Compound 17, 6-Bromo-2-(2,4-dimethoxyphenyl)benzo[d]thiazole], in that order: 148 to 149 °C, 56.9 µM and 56.9 ± 0.02 µM.
As to `COc1cc(OC)cc(-c2nc3ccc(C(F)(F)F)cc3s2)c1` [Compound 5, 2-(3,5-Dimethoxyphenyl)-6-(trifluoromethyl)benzo[d]thiazole], the IC50 was 0.123 µM on recombinant human NQO2 (setting [1]) and 0.123 ± 0.029 µM on recombinant human NQO2 (setting [2]).
On to `COc1ccc(-c2nc3ccc(C#N)cc3s2)cc1OC` [Compound 36, 2-(3,4-Dimethoxyphenyl)benzo[d]thiazole-6-carbonitrile], for which, on recombinant human NQO2 (setting [2]), the IC50 was greater than 100 µM.
For the molecule `COc1ccc(-c2nc3ccc(C(F)(F)F)cc3s2)c(OC)c1` [Compound 18, 2-(2,4-Dimethoxyphenyl)-6-(trifluoromethyl)benzo[d]thiazole], the IC50 on recombinant human NQO2 (setting [2]) turned out to be 4.52 ± 0.04 µM.
On the same count and under the same terms, then `COc1ccc(-c2nc3ccc(C(F)(F)F)cc3s2)cc1OC` [Compound 34, 2-(3,4-Dimethoxyphenyl)-6-(trifluoromethyl)benzo[d]thiazole], with greater than 100 µM.
Take `COc1cc(OC)cc(-c2nc3ccc(N)cc3s2)c1` [Compound 11, 2-(3,5-Dimethoxyphenyl)benzo[d]thiazol-6-amine]: the IC50 on recombinant human NQO2 (setting [1]) turned out to be 0.863 µM; at recombinant human NQO2 (setting [2]) it was 0.863 ± 0.07 µM.
With `COc1ccc2nc(-c3cc(OC)c(OC)c(OC)c3)sc2c1` [Compound 40, 6-Methoxy-2-(3,4,5-trimethoxyphenyl)benzo[d]thiazole], the IC50 amounted to 0.051 µM at recombinant human NQO2 (setting [1]) and 0.051 ± 0.02 µM at recombinant human NQO2 (setting [2]).
For `COc1ccc(-c2nc3ccc(Cl)cc3s2)cc1OC` [Compound 35, 6-Chloro-2-(3,4-dimethoxyphenyl)benzo[d]thiazole], in that order: 91.7 µM and 91.67 ± 0.08 µM.
Take `COc1ccc(OC)c(-c2nc3ccc(OC)cc3s2)c1` [Compound 24, 2-(2,5-Dimethoxyphenyl)-6-methoxybenzo[d]thiazole]: the IC50 on recombinant human NQO2 (setting [1]) is 0.846 µM; on recombinant human NQO2 (setting [2]) it was 0.846 ± 0.02 µM.
Take `COc1cc(-c2nc3ccc(I)cc3s2)cc(OC)c1OC` [Compound 46, 6-Iodo-2-(3,4,5-trimethoxyphenyl)benzo[d]thiazole]: the IC50 at recombinant human NQO2 (setting [2]) is 0.106 ± 0.004 µM.
Take `COc1ccc(OC)c(-c2nc3ccc(C(F)(F)F)cc3s2)c1` [Compound 26, 2-(2,5-Dimethoxyphenyl)-6-(trifluoromethyl)benzo[d]thiazole]: the IC50 at recombinant human NQO2 (setting [1]) is 2.77 µM; at recombinant human NQO2 (setting [2]), 2.77 ± 0.01 µM.
For `COc1ccc2nc(-c3cc(F)cc(F)c3)sc2c1` [Compound 57, 2-(3,5-Difluorophenyl)-6-methoxybenzo[d]thiazole], in that order: 12 µM and 11.78 ± 0.02 µM.
